From US9439432B2, “Phenylisoxazoline-based compound having herbicidal activity and use thereof” (MOGHU RESEARCH CENTER LTD, priority 2011, dated 2016)

Columns and labels:
Assay type in all cases: in vivo
[1] = system: Corn; assay: Pre-emergence treatment, phytotoxicity to corn; conditions: 500 g/ha, 4 weeks after spraying, scale 0 to 10 (0: no effects, 10: complete death)
Description: (§1) A rectangular plastic pot having a surface area of 300 cm^2 was filled with sandy loam soil and mixed bed soil which were mixed at a ratio of 1:1, and then, barnyardrass (Echinochloa crusgalli), large crabgrass (Digitaria sanguinalis), blackgrass (Alopecurus myosuroides), and annual bluegrass (Poa annua), which are grass weeds, were seeded thereto. In a pot that was prepared as described above, seeds of corn, soybean, cotton, wheat, and rice were seeded. The pots were irrigated, and one day after, chemicals were sprayed thereto. The spraying was performed by using a track sprayer (R&D Sprayer, USA) equipped with a Teejet 8002 (Spraying Systems Co., USA) nozzle, and a spraying amount was adjusted at 300 L/ha. A spraying solution was prepared by dissolving test materials or references in acetone and adding the same amount of 0.2%(v/v) tween 20 aqueous solution thereto. Application rates were 500, 250, 125, and 62.5 g/ha. The pots were placed in a greenhouse in which during day, the temperature was maintained at a temperature of 25 to 30° C., and during night, the temperature was maintained at a temperature of 15 to 25° C., and the pots were periodically irrigated. Four weeks after the spraying the test materials or References, effects and phytotoxicity of the respective weeds and crops were evaluated in a scale of 0 to 10 (0: no effects, 10: complete death), and results thereof are shown in Table 4 below.

[2] = system: Soybean; assay: Pre-emergence treatment, phytotoxicity to soybean; conditions: 500 g/ha, 4 weeks after spraying, scale 0 to 10 (0: no effects, 10: complete death)
Description: as §1

[3] = system: Cotton; assay: Pre-emergence treatment, phytotoxicity to cotton; conditions: 500 g/ha, 4 weeks after spraying, scale 0 to 10 (0: no effects, 10: complete death)
Description: as §1

[4] = system: Wheat; assay: Pre-emergence treatment, phytotoxicity to wheat; conditions: 500 g/ha, 4 weeks after spraying, scale 0 to 10 (0: no effects, 10: complete death)
Description: as §1

[5] = system: Rice; assay: Pre-emergence treatment, phytotoxicity to rice; conditions: 500 g/ha, 4 weeks after spraying, scale 0 to 10 (0: no effects, 10: complete death)
Description: as §1

[6] = system: Echinochloa crusgalli; assay: Pre-emergence treatment, herbicidal efficacy on barnyardgrass; conditions: 4 weeks after spraying
Description: as §1

[7] = system: Digitaria sanguinalis; assay: Pre-emergence treatment, herbicidal efficacy on large crabgrass; conditions: 4 weeks after spraying, scale 0 to 10
Description: as §1

[8] = system: Poa annua; assay: Pre-emergence treatment, herbicidal efficacy on annual bluegrass; conditions: 4 weeks after spraying, scale 0 to 10
Description: as §1

[9] = system: Alopecurus myosuroides; assay: Pre-emergence treatment, herbicidal efficacy on blackgrass; conditions: 4 weeks after spraying, scale 0 to 10
Description: as §1

[10] = system: Corn; assay: Post-emergence treatment, phytotoxicity to corn; conditions: post-emergence (about 3 leaf stage), 1,000 g/ha, 4 weeks after spraying, scale 0 to 10 (0: no effects, 10: complete death)
Description: as §1
(§2) Pots containing crops and weeds were prepared in the same manner as in Example 7, and then, in the second week in which crops and weeds entered into about 3 leaf stage, the test materials and the references were sprayed thereto in the same manner as described above. The rates were 1,000, 500, 250, and 125 g/ha. Four weeks after the spraying of the test materials or the references, herbicidal efficacy and phytotoxicity to the respective weeds and crops were evaluated in a scale of 0 to 10 (0: no effects, 10: complete death).

[11] = system: Soybean; assay: Post-emergence treatment, phytotoxicity to soybean; conditions: post-emergence (about 3 leaf stage), 1,000 g/ha, 4 weeks after spraying, scale 0 to 10 (0: no effects, 10: complete death)
Description: as §1, §2

[12] = system: Cotton; assay: Post-emergence treatment, phytotoxicity to cotton; conditions: post-emergence (about 3 leaf stage), 1,000 g/ha, 4 weeks after spraying, scale 0 to 10 (0: no effects, 10: complete death)
Description: as §1, §2

[13] = system: Wheat; assay: Post-emergence treatment, phytotoxicity to wheat; conditions: post-emergence (about 3 leaf stage), 1,000 g/ha, 4 weeks after spraying, scale 0 to 10 (0: no effects, 10: complete death)
Description: as §1, §2

[14] = system: Rice; assay: Post-emergence treatment, phytotoxicity to rice; conditions: post-emergence (about 3 leaf stage), 1,000 g/ha, 4 weeks after spraying, scale 0 to 10 (0: no effects, 10: complete death)
Description: as §1, §2

[15] = system: Echinochloa crusgalli; assay: Post-emergence treatment, herbicidal efficacy on barnyardgrass; conditions: 4 weeks after spraying, scale 0 to 10
Description: as §1, §2

[16] = system: Digitaria sanguinalis; assay: Post-emergence treatment, herbicidal efficacy on large crabgrass; conditions: 4 weeks after spraying, scale 0 to 10
Description: as §1, §2

[17] = system: Poa annua; assay: Post-emergence treatment, herbicidal efficacy on annual bluegrass; conditions: 4 weeks after spraying, scale 0 to 10
Description: as §1, §2

[18] = system: Alopecurus myosuroides; assay: Post-emergence treatment, herbicidal efficacy on blackgrass; conditions: 4 weeks after spraying, scale 0 to 10
Description: as §1, §2

[19] = 500 g/ha, scale 0 to 10 (0: no effects, 10: complete death)

Cc1ccc(C2=NOC(C)(COCc3c(F)cccc3F)C2)cc1 (stereo not drawn) [Reference G]
7: Herbicidal efficacy, Echinochloa crusgalli ([6]; 250 g/ha, scale 0 to 10)
8: Herbicidal efficacy, Digitaria sanguinalis ([7]; 250 g/ha) | Herbicidal efficacy, Poa annua ([8]; 250 g/ha)
5: Herbicidal efficacy, Echinochloa crusgalli ([15]; post-emergence, 500 g/ha)
1: Herbicidal efficacy, Digitaria sanguinalis ([7]; 62.5 g/ha) | Herbicidal efficacy, Poa annua ([8]; 62.5 g/ha) | Herbicidal efficacy, Poa annua ([17]; post-emergence, 250 g/ha)
4: Herbicidal efficacy, Digitaria sanguinalis ([7]; 125 g/ha) | Herbicidal efficacy, Poa annua ([8]; 125 g/ha) | Herbicidal efficacy, Digitaria sanguinalis ([16]; post-emergence, 500 g/ha) | Herbicidal efficacy, Poa annua ([17]; post-emergence, 500 g/ha)
9: Herbicidal efficacy, Poa annua ([8]; 500 g/ha)
3: Herbicidal efficacy, Echinochloa crusgalli ([6]; 125 g/ha, scale 0 to 10) | Herbicidal efficacy, Alopecurus myosuroides ([9]; 500 g/ha) | Herbicidal efficacy, Alopecurus myosuroides ([18]; post-emergence, 1,000 g/ha)
2: Phytotoxicity, Soybean [11] | Herbicidal efficacy, Echinochloa crusgalli ([15]; post-emergence, 250 g/ha) | Herbicidal efficacy, Alopecurus myosuroides ([18]; post-emergence, 500 g/ha)
10: Herbicidal efficacy, Echinochloa crusgalli [6, 19] | Herbicidal efficacy, Digitaria sanguinalis ([7]; 500 g/ha)
6: Herbicidal efficacy, Echinochloa crusgalli ([15]; post-emergence, 1,000 g/ha) | Herbicidal efficacy, Digitaria sanguinalis ([16]; post-emergence, 1,000 g/ha) | Herbicidal efficacy, Poa annua ([17]; post-emergence, 1,000 g/ha)
0: Phytotoxicity, Corn [1] | Phytotoxicity, Soybean [2] | Phytotoxicity, Cotton [3] | Phytotoxicity, Wheat [4] | Phytotoxicity, Rice [5] | Herbicidal efficacy, Echinochloa crusgalli ([6]; 62.5 g/ha, scale 0 to 10) | Herbicidal efficacy, Alopecurus myosuroides ([9]; 62.5 g/ha) | Herbicidal efficacy, Alopecurus myosuroides ([9]; 125 g/ha) | Herbicidal efficacy, Alopecurus myosuroides ([9]; 250 g/ha) | Phytotoxicity, Corn [10] | Phytotoxicity, Cotton [12] | Phytotoxicity, Wheat [13] | Phytotoxicity, Rice [14] | Herbicidal efficacy, Echinochloa crusgalli ([15]; post-emergence, 125 g/ha) | Herbicidal efficacy, Digitaria sanguinalis ([16]; post-emergence, 125 g/ha) | Herbicidal efficacy, Digitaria sanguinalis ([16]; post-emergence, 250 g/ha) | Herbicidal efficacy, Poa annua ([17]; post-emergence, 125 g/ha) | Herbicidal efficacy, Alopecurus myosuroides ([18]; post-emergence, 125 g/ha) | Herbicidal efficacy, Alopecurus myosuroides ([18]; post-emergence, 250 g/ha)

CC1(COCc2c(F)cccc2Cl)CC(c2ccccc2)=NO1 (stereo not drawn) [Reference H]
10: Herbicidal efficacy, Digitaria sanguinalis ([7]; 500 g/ha)
4: Herbicidal efficacy, Echinochloa crusgalli ([15]; post-emergence, 1,000 g/ha) | Herbicidal efficacy, Poa annua ([17]; post-emergence, 1,000 g/ha)
0: Phytotoxicity, Soybean [2] | Phytotoxicity, Cotton [3] | Phytotoxicity, Wheat [4] | Phytotoxicity, Rice [5] | Herbicidal efficacy, Echinochloa crusgalli ([6]; 62.5 g/ha, scale 0 to 10) | Herbicidal efficacy, Echinochloa crusgalli ([6]; 125 g/ha, scale 0 to 10) | Herbicidal efficacy, Digitaria sanguinalis ([7]; 62.5 g/ha) | Herbicidal efficacy, Digitaria sanguinalis ([7]; 125 g/ha) | Herbicidal efficacy, Poa annua ([8]; 62.5 g/ha) | Herbicidal efficacy, Poa annua ([8]; 125 g/ha) | Herbicidal efficacy, Alopecurus myosuroides ([9]; 62.5 g/ha) | Herbicidal efficacy, Alopecurus myosuroides ([9]; 125 g/ha) | Phytotoxicity, Corn [10] | Phytotoxicity, Soybean [11] | Phytotoxicity, Cotton [12] | Phytotoxicity, Wheat [13] | Phytotoxicity, Rice [14] | Herbicidal efficacy, Echinochloa crusgalli ([15]; post-emergence, 125 g/ha) | Herbicidal efficacy, Echinochloa crusgalli ([15]; post-emergence, 250 g/ha) | Herbicidal efficacy, Echinochloa crusgalli ([15]; post-emergence, 500 g/ha) | Herbicidal efficacy, Digitaria sanguinalis ([16]; post-emergence, 125 g/ha) | Herbicidal efficacy, Digitaria sanguinalis ([16]; post-emergence, 250 g/ha) | Herbicidal efficacy, Poa annua ([17]; post-emergence, 125 g/ha) | Herbicidal efficacy, Poa annua ([17]; post-emergence, 250 g/ha) | Herbicidal efficacy, Alopecurus myosuroides ([18]; post-emergence, 125 g/ha) | Herbicidal efficacy, Alopecurus myosuroides ([18]; post-emergence, 250 g/ha) | Herbicidal efficacy, Alopecurus myosuroides ([18]; post-emergence, 500 g/ha) | Herbicidal efficacy, Alopecurus myosuroides ([18]; post-emergence, 1,000 g/ha)
2: Phytotoxicity, Corn [1] | Herbicidal efficacy, Echinochloa crusgalli ([6]; 250 g/ha, scale 0 to 10) | Herbicidal efficacy, Digitaria sanguinalis ([7]; 250 g/ha) | Herbicidal efficacy, Poa annua ([8]; 250 g/ha) | Herbicidal efficacy, Alopecurus myosuroides ([9]; 250 g/ha) | Herbicidal efficacy, Poa annua ([17]; post-emergence, 500 g/ha)
1: Herbicidal efficacy, Digitaria sanguinalis ([16]; post-emergence, 500 g/ha)
8: Herbicidal efficacy, Poa annua ([8]; 500 g/ha)
5: Herbicidal efficacy, Digitaria sanguinalis ([16]; post-emergence, 1,000 g/ha)
9: Herbicidal efficacy, Echinochloa crusgalli [6, 19] | Herbicidal efficacy, Alopecurus myosuroides ([9]; 500 g/ha)
